From BindingDB's records for doi:10.1111/cbdd.12372 (Beijing University of Technology, 2015)

Target: T1, Casein kinase II subunit alpha [1-337] (Homo sapiens, UniProt P68400)
T1 construct: 1-337
Assay: Molecular Docking
Text: The atomic co-ordinates of CK2α were retrieved from the Protein Data Bank [PDB ID: 3PE1] by deleting the heteroatoms except for water molecules within 6.5 of the ligand. Compounds 12, 23, 10, and 27 were constructed with the SYBYL 8.1 programa using compound CX-4945 as the template and were energy minimized with the Tripos force field. Four compounds were docked into the active site of CK2α using the molecular docking program Genetic Optimization for Ligand Docking (GOLD) version 3.0. The active site of CK2α was defined as a 6.5- -radius sphere centered on CX-4945, which comprise all complete amino acids there in. The crystal structure of CK2a in complex with compound CX-4945 was used to optimize docking parameters and evaluate the reliability of the docking methods. The standard default genetic algorithm (GA) parameters were used for all calculations and applied to predi

T1 sequence (P68400 1-337): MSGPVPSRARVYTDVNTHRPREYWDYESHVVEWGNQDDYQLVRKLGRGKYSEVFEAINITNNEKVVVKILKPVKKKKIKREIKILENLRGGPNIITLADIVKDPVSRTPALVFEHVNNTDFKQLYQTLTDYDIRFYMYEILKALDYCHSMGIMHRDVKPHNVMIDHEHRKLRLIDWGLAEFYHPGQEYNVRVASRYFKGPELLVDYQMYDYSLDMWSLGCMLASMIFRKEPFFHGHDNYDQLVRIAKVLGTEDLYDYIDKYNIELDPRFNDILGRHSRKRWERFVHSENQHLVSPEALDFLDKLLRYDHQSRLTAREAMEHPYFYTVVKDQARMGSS

N#Cc1ccc2c(c1)nc(-c1ccc(Cl)cc1)c1ccncc12 [5-(4-chlorophenyl)benzo[c]2,6-naphthyridine-8-carbonitrile (Compound 10)] gave an IC50 greater than 2500 nM.
